From patent US12213966B2, “Methods of reducing plasma level of macrophage migratory inhibitory factor in patients” (priority 2020, dated 2025)

What was measured:
MIF = test: Open-label biomarker study in ALS subjects: serum MIF level before and after ibudilast; format: in vivo, human; details: 19 ALS subjects who completed the study
Method: This was a multi-center, open-label study with a 6 weeks Screening Phase, 36 weeks Treatment Phase, and a Follow-up Phase 4 weeks after the last dose. Ibudilast was orally administered 50 mg b.i.d. for a total daily dose of 100 mg/day.
The objectives of the Study were (i) to measure the impact of ibudilast on [11C]-PBR28 uptake in the motor cortices and brain stem measured by positron emission tomography (PET) imaging at 24 weeks; (ii) to measure the impact of ibudilast on several markers of neuro-inflammation measured by blood biomarkers; and (iii) to evaluate safety and tolerability.
Out of the 46 patients screened, eleven (11) individuals were screen failures. Total of the 35 enrolled subjects were enrolled. Of the 35 enrolled subjects, 16 subjects (45.7%) terminated the study early, and 19 subjects completed the trial. Of these 16 early study withdrawals, 11 (68.8%) were attributed to AEs and 5 (31.2%) were attributed to consent withdrawn.
Serum samples for the 19 subjects who completed the study were evaluated for MIF level before treatment and after treatment with ibudilast. • Mean (SD) pre-treatment serum MIF=422,989 (233,440) pg/ml • Mean (SD) post-treatment serum MIF=300,922 (113,843) pg/ml • Mean (SE) change/month=−19, 845 (8934) pg/ml (p=0.03)

[1] = in vivo; cited from earlier work
[2] = tested on: migration inhibitory factor (MIF); test: Randomized, double-blind, placebo-controlled study in COVID-19 subjects at risk for ARDS: plasma MIF level
Method: The study consisted of a Screening Phase followed by a Treatment and Follow-up Phase. Following the Screening Phase, if the subject met eligibility criteria, subject was administered treatment with ibudilast or placebo. Subjects received ibudilast 100 mg/d (50 mg b.i.d) or placebo every day for 7 days. Upon completion of the 7-day Treatment Phase, subject was followed-up at Day 14 and at Day 28 post baseline.
The following screening assessments were performed upon signing the ICF: inclusion/exclusion criteria review, physical examination, assess vital signs and O2 use, clinical status using the NIAID scale, ECG, draw blood for plasma cytokines that include: migration inhibitory factor (MIF), interleukin 1-beta (IL-1β), interleukin 6 (IL-6), tumor necrosis factor (TNF-α), and C-reactive protein (CRP). Pharmacokinetic (PK) samples, complete blood count (CBC), comprehensive metabolic panel (CMP), D-dimer, and coagulation tests were also be drawn.
On Day 1 (Baseline) of the Treatment Phase, hospitalized subjects were treated with ibudilast (oral, 50 mg (5 capsules) b.i.d) or placebo for a 7-day period. Subjects underwent study-related procedures including physical examination, vital signs, clinical status assessment using the NIAID scale, O2 use, ECG, blood collection of biomarkers, PK, CBC, CMP, D-dimer and coagulation and information on adverse events and concomitant medications were recorded.
The Follow-up Phase consisted of two visits, Day 14 (±3 d) and Day 28 (±3 d). • Day 14 (in-patient): On Day 14, conducted physical examination, clinical status, vital signs and O2 use, ECG, CBC, CMP, D-dimer, and coagulation tests, biomarkers, AE and conmed review, and recorded survival status. • Day 28 (telephone follow-up if patient was no longer hospitalized) On Day 28, clinical status and survival status were recorded.

[3] = COVID-19 subject A, ibudilast oral 50 mg b.i.d. for 7 days
[4] = COVID-19 subject B, ibudilast oral 50 mg b.i.d. for 7 days
[5] = COVID-19 subject C, ibudilast oral 50 mg b.i.d. for 7 days
[6] = COVID-19 subject D, ibudilast oral 50 mg b.i.d. for 7 days
[7] = mean of 4 COVID-19 subjects, ibudilast oral 50 mg b.i.d. for 7 days

## CC(C)C(=O)c1c(C(C)C)nn2ccccc12 [ibudilast, 2-methyl-1-(2-(1-methylethyl)pyrazolo(1,5-a)pyridin-3-yl)1-propanone]
MIF; after ibudilast oral 50 mg b.i.d. (100 mg/day), 36 weeks Treatment Phase
  Mean (SD) post-treatment serum MIF: 300,922 (113,843) pg/ml
MIF; before treatment
  Mean (SD) pre-treatment serum MIF: 422,989 (233,440) pg/ml
[1]
  CNS penetration: good CNS penetration
[2]; 4 ibudilast vs 4 placebo COVID-19 subjects, p value=0.00552
  Difference of mean change of MIF level between ibudilast-treated group and placebo group: 17277 pg/mL
[2]; COVID-19 subject A, ibudilast-treated group, before treatment
  Plasma MIF level pre-treatment, Subject A: 25267 pg/mL
[2]; [3]
  Plasma MIF level difference (post minus pre), Subject A: -11130 pg/mL
  Plasma MIF level post-treatment, Subject A: 14137 pg/mL
[2]; COVID-19 subject B, ibudilast-treated group, before treatment
  Plasma MIF level pre-treatment, Subject B: 21130 pg/mL
[2]; [4]
  Plasma MIF level difference (post minus pre), Subject B: -1497 pg/mL
  Plasma MIF level post-treatment, Subject B: 19633 pg/mL
[2]; COVID-19 subject C, ibudilast-treated group, before treatment
  Plasma MIF level pre-treatment, Subject C: 17763 pg/mL
[2]; [5]
  Plasma MIF level difference (post minus pre), Subject C: -12037 pg/mL
  Plasma MIF level post-treatment, Subject C: 5726 pg/mL
[2]; COVID-19 subject D, ibudilast-treated group, before treatment
  Plasma MIF level pre-treatment, Subject D: 27005 pg/mL
[2]; [6]
  Plasma MIF level difference (post minus pre), Subject D: -18433 pg/mL
  Plasma MIF level post-treatment, Subject D: 8572 pg/mL
[2]; mean of 4 COVID-19 subjects, ibudilast-treated group, before treatment
  Mean pre-treatment plasma MIF level: 22791.3 pg/mL
[2]; [7]
  Mean change MIF level: -110774.3 pg/mL
  Mean post-treatment plasma MIF level: 12017 pg/mL
[2]; mean of 4 COVID-19 subjects, ibudilast oral 50 mg b.i.d. for 7 days, listed as Ibudilast
  Mean change MIF level: -10774.3 pg/mL
